Measured values reported in patent publication US20260008760A1, “DIPEPTIDYL PEPTIDASE 1 INHIBITORS AND USES THEREOF” (Insmed Incorporated, priority 2024, published 2026).
Where two headings read alike, the source gives them in different places.

What was measured:
[1] = biological target: human DPP1 enzyme (Homo sapiens, UniProt P53634); assay: Human DPP1 Enzyme IC50 Assay; assay type: biochemical; set-up: was first proteolytically processed into its mature form using recombinant human cathepsin L; purchased R&D Systems
Protocol: Example 97. Human DPP1 Enzyme IC50 Assay
Recombinant human DPP1 enzyme (R&D Systems; Minneapolis, MN) was first proteolytically processed into its mature form using recombinant human cathepsin L (R&D Systems) in a buffer consisting of 20 mM citric acid pH 4.5, 150 mM NaCl, 1 mM EDTA and 10 mM DTT. Test articles were applied to activated human DPP1 enzyme in Assay Buffer (25 mM MES pH 6.0, 50 mM NaCl, 5 mM DTT) in a total reaction volume of 125 μL. 25 μL of compound in Assay Buffer plus 5% DMSO was first added to 50 μL of activated human DPP1 enzyme at a concentration of 1 ng/μL and allowed to pre-incubate for 10 minutes at 37° C. after which 50 μL of 1000 μM H-Gly-Arg-AMC substrate (Bachem; St. Torrance, CA) was added, giving final substrate concentration of 400 μM and a final DMSO concentration of 1%. Substrate cleavage was measured for 90 minutes at 37° C., with fluorescence at Excitation/Emission 350/450 nm measured every 5 minutes. DPP1 concentration was interpolated based on its activity relative to a standard curve of activated human recombinant DPP1 enzyme. IC50 values for each compound were calculated via the XLFit (IDBS Version 5.3.1.3) Add-On to Microsoft Excel using the four parameter fit equation y={A+[(B−A)]/[1+((C/x)^D)]}, which appears as equation number 205 (4 Parameter Logistic Model or Sigmoidal Dose-Response Model) in XLFit. Default constraints were used for each Parameter. IC50 was defined as the compound concentration at which 50% of enzyme activity was inhibited when compared to the no-compound control.

[2] = biological target: DPP1 in HL-60 cells (Homo sapiens, UniProt P53634); assay: DPP1 Cell IC50 assay; assay type: cell-based; set-up: host or cells: HL-60 cells; settings: 60 min pre-incubation, H-Gly-Phe-AFC substrate, average of n runs
Protocol: Example 99. DPP1 Cell IC50 assay
HL-60 cells (ATCC; Manassas, VA) were maintained in RPMI-1640 supplemented with 20% heat-inactivated FBS and 1× Antibiotic Antimycotic (Cytiva; Marlborough, MA). Media was changed every three to four days and cells were not allowed to exceed 1×10^6 cells per mL. Prior to assay, cells were collected by centrifugation at 500 rcf for 3 minutes, resuspended in PBS and counted. Cells were diluted in PBS to a concentration of 5×10^5 live cells per mL and transferred to black 96-well plates for assay, 60 μL per well. Test articles were diluted in PBS plus 0.5% DMSO, and 20 μL was added to each assay well. Compound was allowed to pre-incubate with cells with gentle shaking at 100 rpm for 60 minutes at 37° C. in a cell culture incubator maintained at 5% CO2, after which 20 μL of 500 μM H-Gly-Phe-AFC substrate (MP Biomedicals; Solon, OH) was added to each well. Plates were returned to the incubator with shaking at 100 rpm for 30 minutes, after which fluorescence was measured at Excitation/Emission 400/505 nm. % Inhibition was calculated from RFU values compared to control cell wells that received only PBS plus 0.5% DMSO. IC50 values for each compound were calculated via the XLFit (IDBS Version 5.3.1.3) Add-On to Microsoft Excel using the four parameter fit equation y=(A+((B−A)/(1+((C/x)^D)))), which appears as equation number 205 (4 Parameter Logistic Model or Sigmoidal Dose-Response Model) in XLFit. IC50 was defined as the compound concentration at which 50% of enzyme activity was inhibited when compared to the no-compound control.

[3] = activated recombinant human DPP1, 400 μM H-Gly-Arg-AMC, 10 minutes pre-incubation at 37° C., pH 6.0, average of n runs, read-out: Avg. IC50 (Human DPP1 enzyme IC50 value ranges)
[4] = read-out: Avg. IC50 (DPP1 Cell IC50 value ranges)

Chain of human DPP1 enzyme (P53634 25-134 limits assumed): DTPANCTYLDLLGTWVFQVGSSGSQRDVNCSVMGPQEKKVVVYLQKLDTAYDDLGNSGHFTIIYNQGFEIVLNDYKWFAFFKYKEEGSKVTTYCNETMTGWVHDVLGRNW
Chain of human DPP1 enzyme (P53634 231-394 limits assumed): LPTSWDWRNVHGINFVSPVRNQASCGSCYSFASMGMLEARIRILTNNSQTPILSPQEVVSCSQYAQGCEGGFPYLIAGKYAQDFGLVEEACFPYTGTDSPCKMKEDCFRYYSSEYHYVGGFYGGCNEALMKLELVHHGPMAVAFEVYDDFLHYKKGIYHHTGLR
Chain of human DPP1 enzyme (P53634 395-463 limits assumed): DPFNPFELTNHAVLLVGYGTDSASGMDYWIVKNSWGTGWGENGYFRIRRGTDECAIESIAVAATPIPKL
Chain of DPP1 in HL-60 cells (P53634 25-463): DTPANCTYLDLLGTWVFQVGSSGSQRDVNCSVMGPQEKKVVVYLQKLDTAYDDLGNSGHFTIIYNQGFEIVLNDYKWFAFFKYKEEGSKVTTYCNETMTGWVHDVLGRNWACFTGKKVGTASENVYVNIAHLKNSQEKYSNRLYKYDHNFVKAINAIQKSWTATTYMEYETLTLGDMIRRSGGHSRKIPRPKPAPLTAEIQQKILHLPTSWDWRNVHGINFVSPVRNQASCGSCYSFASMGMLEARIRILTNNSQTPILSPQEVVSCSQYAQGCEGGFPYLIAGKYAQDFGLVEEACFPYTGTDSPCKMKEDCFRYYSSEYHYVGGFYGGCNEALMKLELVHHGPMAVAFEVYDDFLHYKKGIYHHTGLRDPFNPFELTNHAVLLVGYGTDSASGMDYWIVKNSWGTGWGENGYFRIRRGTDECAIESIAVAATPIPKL

| Structure (SMILES) | IC50 [1, 3] [nM] | IC50 [2, 4] [nM] | IC50 [1] [nM] | IC50 ([2]; Avg. IC50 (DPP1 Cell IC50 value ranges)) [nM] |
| --- | --- | --- | --- | --- |
| N#C[C@H](Cc1ccc(-c2ccc(-c3nnc(N)s3)o2)cc1)NC(=O)[C@@H]1CNCCCO1 [Compound D1, (2S)—N-[(1S)-2-{4-[5-(5-amino-1,3,4-thiadiazol-2-yl)furan-2-yl]phenyl}-1-cyanoethyl]-1,4-oxazepane-2-carboxamide] | > 15 | > 2.5 |  |  |
| CO[C@H]1CCO[C@H](C(=O)N[C@H](C#N)Cc2ccc(-c3ccc4c(c3)CCC(=O)N4C)cc2)CNC1 [Compound A147] | 5 to 15 | 1 to 2.5 |  |  |
| N#C[C@H](Cc1ccc(-c2ccc3c(c2)C[C@]2(CCN(c4nccs4)C2)OC3)cc1)NC(=O)[C@@H]1CNCCCO1 [Compound I14] | > 15 | > 2.5 |  |  |
| Cc1sc(-c2ccc(C[C@@H](C#N)NC(=O)[C@@H]3CNCCCO3)cc2)nc1-c1cc[nH]c(=O)c1 [Compound D9, (2S)—N-[(1S)-1-cyano-2-{4-[5-methyl-4-(2-oxo-1H-pyridin-4-yl)-1,3-thiazol-2-yl]phenyl}ethyl]-1,4-oxazepane-2-carboxamide] | > 15 | > 2.5 |  |  |
| N#C[C@H](Cc1ccc(-c2cc3ccncc3[nH]2)cc1)NC(=O)[C@@H]1CNCCCO1 [Compound A7, (2S)—N-[(1S)-1-cyano-2-(4-{1H-pyrrolo[2,3-c]pyridin-2-yl}phenyl)ethyl]-1,4-oxazepane-2-carboxamide] | > 15 | > 2.5 |  |  |
| COC1CNC[C@@H](C(=O)N[C@H](C#N)Cc2ccc(-c3ccc4c(F)nn(C)c4c3)cc2)OC1 (some centres unmarked) [Compound A158] | < 5 | < 1 |  |  |
| Cc1cn2cc(-c3cc4sc(C[C@H](C#N)NC(=O)[C@@H]5CNCCCCO5)cc4s3)cc2c(C)n1 (single isomer, unassigned) [Compound A31] | > 15 | > 2.5 |  |  |
| CO[C@H]1CCO[C@H](C(=O)N[C@H](C#N)Cc2ccc(-c3ccc(C#N)cc3)cc2)CNC1 [Compound F1, (2S,6S)—N-[(1S)-1-cyano-2-{4′-cyano-[1,1′-biphenyl]-4-yl}ethyl]-6-methoxy-1,4-oxazocane-2-carboxamide] | > 15 | > 2.5 |  |  |
| Cn1c(=O)ccc2ncc(-c3ccc(C[C@@H](C#N)NC(=O)[C@@H]4CNCCCO4)cc3)cc21 [Compound A18, (2S)—N-[(1S)-1-cyano-2-[4-(5-methyl-6-oxo-1,5-naphthyridin-3-yl)phenyl]ethyl]-1,4-oxazepane-2-carboxamide] | > 15 | > 2.5 |  |  |
| CO[C@H]1CCO[C@H](C(=O)N[C@H](C#N)Cc2ccc(-c3cc4c(C)nc(C)cn4c3)s2)CNC1 [Compound A44, (2S,6S)—N-[(1S)-1-cyano-2-(5-{1,3-dimethylpyrrolo[1,2-a]pyrazin-7-yl}thiophen-2-yl)ethyl]-6-methoxy-1,4-oxazocane-2-carboxamide] | > 15 | > 2.5 |  |  |
| CO[C@@H]1CCNC[C@@H](C(=O)N[C@H](C#N)Cc2ccc(-c3cc4c(C)nc(C)cn4c3)c(F)c2)OC1 [Compound A35, (2S,7R)—N-[(1S)-1-cyano-2-(4-{1,3-dimethylpyrrolo[1,2-a]pyrazin-7-yl}-3-fluorophenyl)ethyl]-7-methoxy-1,4-oxazocane-2-carboxamide] | 5 to 15 | 1 to 2.5 |  |  |
| N#C[C@H](Cc1ccc(-c2csc(-c3nnc(N)o3)c2)cc1)NC(=O)[C@@H]1CNCCCO1 [Compound D2, (2S)—N-[(1S)-2-{4-[5-(5-amino-1,3,4-oxadiazol-2-yl)thiophen-3-yl]phenyl}-1-cyanoethyl]-1,4-oxazepane-2-carboxamide] | > 15 | > 2.5 |  |  |
| Cn1nc(F)c2ccc(-c3ccc(C[C@@H](C#N)NC(=O)[C@@H]4CNCC[C@@H](F)CO4)cc3)cc21 [Compound A161] | > 15 | > 2.5 |  |  |
| CO[C@H]1CCO[C@H](C(=O)N[C@H](C#N)Cc2ccc(-c3ccc4c(n3)CCCN4)cc2F)CNC1 [Compound A49, (2S,6S)—N-[(1S)-1-cyano-2-[2-fluoro-4-(5,6,7,8-tetrahydro-1,5-naphthyridin-2-yl)phenyl]ethyl]-6-methoxy-1,4-oxazocane-2-carboxamide] | 5 to 15 | > 2.5 |  |  |
| CN1C(=O)C2(CCN(C3COC3)CC2)c2cc(-c3ccc(C[C@@H](C#N)NC(=O)[C@@H]4CNCCCO4)cc3)ccc21 [Compound 29, (2S)—N-[(1S)-1-cyano-2-{4-[1-methyl-1′-(oxetan-3-yl)-2-oxospiro[indole-3,4′-piperidin]-5-yl]phenyl}ethyl]-1,4-oxazepane-2-carboxamide] | > 15 | > 2.5 |  |  |
| N#C[C@H](Cc1ccc(-c2ccc3c(c2)CCS3)cc1)NC(=O)[C@@H]1CNCCCO1 [Compound A4, (2S)—N-[(1S)-1-cyano-2-[4-(2,3-dihydro-1-benzothiophen-5-yl)phenyl]ethyl]-1,4-oxazepane-2-carboxamide] | > 15 | > 2.5 |  |  |
| N#CC(Cc1cc2c(cc1F)-c1cc(C3COC3)c(F)cc1CO2)NC(=O)[C@@H]1CNCCCCO1 (mixture of isomers) [Compound B10, (2S)—N-{1-cyano-2-[2,8-difluoro-9-(oxetan-3-yl)-6H-benzo[c]chromen-3-yl]ethyl}-1,4-oxazocane-2-carboxamide] | 5 to 15 | 1 to 2.5 |  |  |
| CO[C@@H]1CNC[C@@H](C(=O)N[C@H](C#N)Cc2ccc(-c3cc4c(C)nc(C)cn4c3)cc2F)OC1 [Compound A88-A] | > 15 | > 2.5 |  |  |
| CO[C@H]1CCO[C@H](C(=O)N[C@H](C#N)Cc2cc3c(cc2F)-c2ccc(C#N)cc2CO3)CNC1 (single isomer, unassigned) [Compound B13] | < 5 | < 1 |  |  |
| N#C[C@H](Cc1cc2c(cc1F)-c1ccc(F)cc1CO2)NC(=O)[C@@H]1CNCCCO1 [Compound B35] |  |  | > 15 | > 2.5 |
| Cn1c(=O)oc2cc3c(cc21)-c1cc(F)c(CC(C#N)NC(=O)[C@@H]2CNCCCO2)cc1OC3 (stereo partly drawn) [Compound C1, (2S)—N-(1-cyano-2-{4-fluoro-15-methyl-14-oxo-8,13-dioxa-15-azatetracyclo[8.7.0.0^{2,7}0.0^{12,16}]heptadeca-1(10),2(7),3,5,11,16-hexaen-5-yl}ethyl)-1,4-oxazepane-2-carboxamide] | < 5 | > 2.5 |  |  |
| CO[C@@H]1CCNC[C@@H](C(=O)N[C@H](C#N)Cc2ccc(-c3ccc4c(n3)CCCN4)cc2F)OC1 [Compound A50, (2S,7R)—N-[(1S)-1-cyano-2-[2-fluoro-4-(5,6,7,8-tetrahydro-1,5-naphthyridin-2-yl)phenyl]ethyl]-7-methoxy-1,4-oxazocane-2-carboxamide] | < 5 | 1 to 2.5 |  |  |
| Cn1c(=O)oc2cc3c(cc21)-c1cc(F)c(CC(C#N)NC(=O)[C@@H]2CNCCCCO2)cc1OC3 (stereo partly drawn) [Compound C5, (2S)—N-[(1S)-1-cyano-2-{4-fluoro-15-methyl-14-oxo-8,13-dioxa-15-azatetracyclo[8.7.0.0^{2,7}0.0^{12,16}]heptadeca-1(10),2,4,6,11,16-hexaen-5-yl}ethyl]-1,4-oxazocane-2-carboxamide] | < 5 | 1 to 2.5 |  |  |
| N#C[C@H](Cc1ccc(-c2ccc3c(c2)[C@]2(CCCN(C#N)C2)SC3)cc1)NC(=O)[C@@H]1CNCCCO1 [Compound I15] | > 15 | > 2.5 |  |  |
| Cn1c(=O)oc2cc3c(cc21)-c1cc(F)c(CC(C#N)NC(=O)[C@@H]2CNCCCCO2)cc1OC3 (single isomer, unassigned) [Compound C6] | > 15 | > 2.5 |  |  |
